Laboratory results taken from ChEMBL document CHEMBL4265942, “Four new antitumor metabolites isolated from a mutant 3-f-31 strain derived from Penicillium purpurogenum G59” (Eur J Med Chem, 2018).
pIC50: −log10 of the molar value. Activity calls are given as the source filed them. The rule behind the calls is not given here.

Assays:
NCI-H1975 [1] = assay: Antiproliferative activity against human NCI-H1975 cells assessed as inhibition of cell growth after 72 hrs by sulforhodamine B assay; format: functional, cell-based; details: NCI-H1975, 72 h
BXPC-3 [2] = assay: Antiproliferative activity against human BxPC3 cells assessed as inhibition of cell growth after 72 hrs by sulforhodamine B assay; format: functional, cell-based; details: BXPC-3, 72 h
HeLa [3] = assay: Antiproliferative activity against human HeLa cells assessed as inhibition of cell growth after 72 hrs by sulforhodamine B assay; format: functional, cell-based
PC-3 [4] = assay: Antiproliferative activity against human PC3 cells assessed as inhibition of cell growth after 72 hrs by sulforhodamine B assay; format: functional, cell-based; details: PC-3, 72 h
A549 [5] = assay: Antiproliferative activity against human A549 cells assessed as inhibition of cell growth after 72 hrs by sulforhodamine B assay; format: functional, cell-based; details: A549, 72 h
L929 = assay: Cytotoxicity against mouse L929 cells assessed as inhibition of cell growth after 72 hrs by MTT assay; format: cell-based; details: L929, 72 h
MCF7 [6] = assay: Antiproliferative activity against human MCF7 cells assessed as inhibition of cell growth after 72 hrs by sulforhodamine B assay; format: functional, cell-based; details: MCF7, 72 h
K562 [7] = assay: Antiproliferative activity against human K562 cells assessed as inhibition of cell growth after 72 hrs by MTT assay; format: functional, cell-based; details: K562, 72 h
SW480 [8] = assay: Antiproliferative activity against human SW480 cells assessed as inhibition of cell growth after 72 hrs by sulforhodamine B assay; format: functional, cell-based; details: SW480, 72 h
PANC-1 [9] = assay: Antiproliferative activity against human PANC1 cells assessed as inhibition of cell growth after 72 hrs by sulforhodamine B assay; format: functional, cell-based; details: PANC-1, 72 h
LS180 [10] = assay: Antiproliferative activity against human LS180 cells assessed as inhibition of cell growth after 72 hrs by sulforhodamine B assay; format: functional, cell-based; details: LS180, 72 h
HepG2 [11] = assay: Antiproliferative activity against human HepG2 cells assessed as inhibition of cell growth after 72 hrs by sulforhodamine B assay; format: functional, cell-based; details: HepG2, 72 h
HT-29 [12] = assay: Antiproliferative activity against human HT-29 cells assessed as inhibition of cell growth after 72 hrs by sulforhodamine B assay; format: functional, cell-based; details: HT-29, 72 h
HL-60 [13] = assay: Antiproliferative activity against human HL60 cells assessed as inhibition of cell growth after 72 hrs by MTT assay; format: functional, cell-based; details: HL-60, 72 h
HCT-116 [14] = assay: Antiproliferative activity against human HCT116 cells assessed as inhibition of cell growth after 72 hrs by sulforhodamine B assay; format: functional, cell-based; details: HCT-116, 72 h
HCT-116 [15] = assay: Upregulation of p53 expression in human HCT116 cells at 12.5 ug/ml after 48 hrs by Western blot analysis; format: functional, cell-based
HCT-116 [16] = assay: Down regulation of survivin expression in human HCT116 cells at 12.5 ug/ml after 48 hrs by Western blot analysis; format: functional, cell-based
Mus musculus = assay: Toxicity in BALB/c nu/nu mouse xenografted with human HCT116 cells assessed as spleen index at 5 mg/kg, iv administered every other day for 14 days measured 24 hrs post last dose (reference value: 0.41 +/- 0.08%); format: organism-based; details: in vivo
HCT-116 [17] = assay: Antitumor activity against human HCT116 cells xenografted in BALB/c nu/nu mouse assessed as tumor growth inhibition at 5 mg/kg, iv administered every other day for 14 days measured 24 hrs post last dose relative to control; format: functional; details: HCT-116, iv, read-out: TGI
HeLa [18] = assay: Antiproliferative activity against human HeLa cells assessed as inhibition of cell growth at 100 uM after 72 hrs by sulforhodamine B assay relative to control; format: functional
HCT-116 [19] = assay: Antiproliferative activity against human HCT116 cells assessed as inhibition of cell growth at 100 uM after 72 hrs by sulforhodamine B assay relative to control; format: functional; details: HCT-116, 72 h
HT-29 [20] = assay: Antiproliferative activity against human HT-29 cells assessed as inhibition of cell growth at 100 uM after 72 hrs by sulforhodamine B assay relative to control; format: functional; details: HT-29, 72 h
A549 [21] = assay: Antiproliferative activity against human A549 cells assessed as inhibition of cell growth at 100 uM after 72 hrs by sulforhodamine B assay relative to control; format: functional; details: A549, 72 h
PANC-1 [22] = assay: Antiproliferative activity against human PANC1 cells assessed as inhibition of cell growth at 100 uM after 72 hrs by sulforhodamine B assay relative to control; format: functional; details: PANC-1, 72 h
LS180 [23] = assay: Antiproliferative activity against human LS180 cells assessed as inhibition of cell growth at 100 uM after 72 hrs by sulforhodamine B assay relative to control; format: functional; details: LS180, 72 h
PC-3 [24] = assay: Antiproliferative activity against human PC3 cells assessed as inhibition of cell growth at 100 uM after 72 hrs by sulforhodamine B assay relative to control; format: functional; details: PC-3, 72 h
K562 [25] = assay: Antiproliferative activity against human K562 cells assessed as inhibition of cell growth at 100 uM after 72 hrs by MTT assay relative to control; format: functional; details: K562, 72 h
BXPC-3 [26] = assay: Antiproliferative activity against human BxPC3 cells assessed as inhibition of cell growth at 100 uM after 72 hrs by sulforhodamine B assay relative to control; format: functional; details: BXPC-3, 72 h
NCI-H1975 [27] = assay: Antiproliferative activity against human NCI-H1975 cells assessed as inhibition of cell growth at 100 uM after 72 hrs by sulforhodamine B assay relative to control; format: functional; details: NCI-H1975, 72 h
HL-60 [28] = assay: Antiproliferative activity against human HL60 cells assessed as inhibition of cell growth at 100 uM after 72 hrs by MTT assay relative to control; format: functional; details: HL-60, 72 h
MCF7 [29] = assay: Antiproliferative activity against human MCF7 cells assessed as inhibition of cell growth at 100 uM after 72 hrs by sulforhodamine B assay relative to control; format: functional; details: MCF7, 72 h
SW480 [30] = assay: Antiproliferative activity against human SW480 cells assessed as inhibition of cell growth at 100 uM after 72 hrs by sulforhodamine B assay relative to control; format: functional; details: SW480, 72 h
HepG2 [31] = assay: Antiproliferative activity against human HepG2 cells assessed as inhibition of cell growth at 100 uM after 72 hrs by sulforhodamine B assay relative to control; format: functional; details: HepG2, 72 h

**Q.** What does the source list for CCCCCC[C@@H](C)C[C@@H](C)/C=C/C(=O)N[C@H]1C[C@@]2(O[C@@H]1OC)[C@@H]1O[C@@H]1[C@](O)(CC(C)=O)[C@@H]1O[C@@H]12?
**A.** pIC50 (NCI-H1975 [1]): 5.32; pIC50 (BXPC-3 [2]): 4.98; pIC50 (HeLa [3]): 5.06; pIC50 (PC-3 [4]): 5.20; pIC50 (A549 [5]): 4.83; pIC50 (L929): 5.43; pIC50 (MCF7 [6]): 5.39; pIC50 (K562 [7]): 5.19; pIC50 (SW480 [8]): 5.41; pIC50 (PANC-1 [9]): 5.24; pIC50 (LS180 [10]): 4.86; pIC50 (HepG2 [11]): 5.02; pIC50 (HT-29 [12]): 5.01; pIC50 (HL-60 [13]): 4.97; pIC50 (HCT-116 [14]): 5.58

**Q.** With COc1cc([C@@H]2c3cc4c(cc3[C@@H](O[C@@H]3O[C@@H]5CO[C@@H](C)O[C@H]5[C@H](O)[C@H]3O)[C@H]3COC(=O)[C@H]23)OCO4)cc(OC)c1O as the compound, how does the Activity (HCT-116 [15]) read?
**A.** Active

**Q.** And the Activity (HCT-116 [16])?
**A.** Active

**Q.** Which Activity_index (Mus musculus) does the source give for CC(=O)O[C@@]12CO[C@@H]1C[C@H](O)[C@@]1(C)C(=O)[C@H](O)C3=C(C)[C@@H](OC(=O)[C@H](O)[C@@H](NC(=O)OC(C)(C)C)c4ccccc4)C[C@@](O)([C@@H](OC(=O)c4ccccc4)[C@H]21)C3(C)C [DOCETAXEL ANHYDROUS] here?
**A.** 0.25

**Q.** What about the inhibition in vivo at 5 mg/kg (HCT-116 [17]) of the same compound?
**A.** 87.4%

**Q.** What does the source list for O=c1[nH]cc(F)c(=O)[nH]1 [FLUOROURACIL]?
**A.** inhibition at 100 µM (HeLa [18]): 41 to 95%; inhibition at 100 µM (HCT-116 [19]): 41 to 95%; inhibition at 100 µM (HT-29 [20]): 41 to 95%; inhibition at 100 µM (A549 [21]): 41 to 95%; inhibition at 100 µM (PANC-1 [22]): 41 to 95%; inhibition at 100 µM (LS180 [23]): 41 to 95%; inhibition at 100 µM (PC-3 [24]): 41 to 95%; inhibition at 100 µM (K562 [25]): 41 to 95%; inhibition at 100 µM (BXPC-3 [26]): 41 to 95%; inhibition at 100 µM (NCI-H1975 [27]): 41 to 95%; inhibition at 100 µM (HL-60 [28]): 41 to 95%; inhibition at 100 µM (MCF7 [29]): 41 to 95%; inhibition at 100 µM (SW480 [30]): 41 to 95%; inhibition at 100 µM (HepG2 [31]): 41 to 95%
